Experimental data taken from patent US20030130180A1, “Utilization of an aminopeptidase inhibitor” (priority 2000, published 2003).

System: Karpas cells
Assay: Detection of surface protein combinations of the protein network on untreated (V1) and actinonin-treated (V2) Karpas cells
Assay type: cell-based
Conditions: for V2 no. of cells / V2 no. of cells In 1/1OOO: actinonin-treated Karpas cells
From the text: Principally, detecting of the surface protein combinations may comprise procedural steps of an automated method for determining molecular classes, molecular groups or molecular parts in a solid or liquid object according to DE 197 09 348 C. In these steps, surface proteins may be examined and measured in one and the same object, i.e. in a sample of immune cells and/or tumor cells for example, by sequentially applying reagent solutions Yn (n=1,2,3, . . . N) by means of an automated apparatus, said procedural steps being: I. taking a first reagent solution Y1 from a vessel containing the reagent solution, II. applying said reagent solution Y1 to the object which is on an object slide, III. allowing the reagent solution to react for an automatically set period of time, IV. recording at least one individual labeling pattern of the object previously labeled with said first reagent solution Y1, V. repeating steps I-IV by applying said first reagent solution Y1 or a second reagent solution Y2 or a mixture of said first and second reagent solutions, and VI. repeating steps I to V with further reagent solutions Yn (n=2,3, . . . N) or a mixture thereof and whereby the labeling distribution patterns obtained in each cycle of the method are turned into a complex molecular combination pattern of the object to be examined by computer-aided image overlay. From this combination pattern, information may be gained on the presence of the above mentioned proteins, thus also allowing detection of the surface protein combinations, if the reagent solutions used contain labeled substances directed against the proteins in question. In numerous examinations, it was possible to identify the 30 cell surface proteins already listed above which belong to a specific protein network controlling the early polarization stages of tumor cells and immune cells. In a further examination, surface protein combinations of this protein network of Karpas cells were detected, both in untreated form and after treatment with the aminopeptidase inhibitor actinonin. For this purpose, two groups V1 and V2 of Karpas cells were formed, with the cells of group Vl remaining untreated, while the cells of group V2 were treated with actinonin. Table 2 lists those surface protein combinations which are present both in the actinonin-treated cells and in the untreated cells. However, this table and the further tables 3 and 4 only give examples of 18 of the 30 proteins, with the detected proteins being designated 1 and the non-detected proteins being designated 0. The proteins are continuously numbered 1 to 18, with the nomenclature being notable from table 1. [table] The cell numbers stated in tables 2 to 4 refer to each 1,000 cells examined in groups V1 and V2. Table 3 lists the surface protein combinations which only occur in the untreated Karpas cells and are never found in the actinonin-treated Karpas cells. The number of protein combinations listed in this table 3 amounts to 131. Finally, table 4 exclusively lists those surface protein combinations which occur exclusively in the actinonin-treated Karpas cells. It may be gathered from tables 2 to 4 that, if one examines merely 18 proteins of the 30 proteins, a total of 394 different surface protein combinations will occur, with a total of 334 different combinations occurring in the untreated cells and a total of 263 different combinations being detected in the treated cells.

SMILES: CCCCC[C@H](CC(=O)NO)C(=O)N[C@H](C(=O)N1CCC[C@H]1CO)C(C)C [actinonin]
- V2 no. of cells (protein code No. 54, proteins 1-18 binary 011000001100001100): 1.5 1/1OOO
- V2 no. of cells (protein code No. 55, proteins 1-18 binary 001000010100001000): 2.0 1/1OOO
- V2 no. of cells (protein code No. 57, proteins 1-18 binary 101100110111011000): 2.4 1/1OOO
- V2 no. of cells (protein code No. 58 (first line so numbered), proteins 1-18 binary 001100011101001000): 1.7 1/1OOO
- V2 no. of cells (protein code No. 58 (second line so numbered), proteins 1-18 binary 000000011101000000): 2.9 1/1OOO
- V2 no. of cells (protein code No. 59, proteins 1-18 binary 101100010111001000): 1.5 1/1OOO
- V2 no. of cells (protein code No. 60, proteins 1-18 binary 001000000101001000): 1.5 1/1OOO
- V2 no. of cells (protein code No. 61, proteins 1-18 binary 000000010111001000): 1.6 1/1OOO
- V2 no. of cells (protein code No. 62, proteins 1-18 binary 001000000001001000): 0.6 1/1OOO
- V2 no. of cells (protein code No. 63, proteins 1-18 binary 000000010100001000): 1.6 1/1OOO
- V2 no. of cells (protein code No. 64, proteins 1-18 binary 000000011001000000): 2.1 1/1OOO
- V2 no. of cells (protein code No. 65, proteins 1-18 binary 000000000011000000): 0.7 1/1OOO
- V2 no. of cells (protein code No. 66, proteins 1-18 binary 101000010101011000): 1.0 1/1OOO
- V2 no. of cells (protein code No. 67, proteins 1-18 binary 001100011111011000): 1.8 1/1OOO
- V2 no. of cells (protein code No. 68, proteins 1-18 binary 000000000010000000): 0.1 1/1OOO
- V2 no. of cells (protein code No. 69, proteins 1-18 binary 001000000011000000): 1.2 1/1OOO
- V2 no. of cells (protein code No. 70, proteins 1-18 binary 010000001100000100): 1.5 1/1OOO
- V2 no. of cells In 1/1OOO (surface protein combination No. 93, binary code 011100011101001000): 0.7 1/1OOO
- V2 no. of cells In 1/1OOO (surface protein combination No. 94, binary code 000000011000000000): 1.0 1/1OOO
- V2 no. of cells In 1/1OOO (surface protein combination No. 95, binary code 000000001101000000): 1.4 1/1OOO
- V2 no. of cells In 1/1OOO (surface protein combination No. 96, binary code 001100011101011000): 0.3 1/1OOO
- V2 no. of cells In 1/1OOO (surface protein combination No. 97, binary code 011000011101001100): 0.7 1/1OOO
- V2 no. of cells In 1/1OOO (surface protein combination No. 98, binary code 011000011100001100): 0.9 1/1OOO
- V2 no. of cells In 1/1OOO (surface protein combination No. 99, binary code 000000011101001000): 0.9 1/1OOO
- V2 no. of cells In 1/1OOO (surface protein combination No. 100, binary code 010000001000000000): 0.3 1/1OOO
- V2 no. of cells In 1/1OOO (surface protein combination No. 101, binary code 010000011101000000): 0.5 1/1OOO
- V2 no. of cells In 1/1OOO (surface protein combination No. 102, binary code 001100010101011100): 0.6 1/1OOO
- V2 no. of cells In 1/1OOO (surface protein combination No. 103, binary code 011000011001000000): 0.7 1/1OOO
- V2 no. of cells In 1/1OOO (surface protein combination No. 104, binary code 001000001001000000): 0.8 1/1OOO
- V2 no. of cells In 1/1OOO (surface protein combination No. 105, binary code 000000010111000000): 0.9 1/1OOO
- V2 no. of cells In 1/1OOO (surface protein combination No. 107, binary code 000100010001001000): 0.2 1/1OOO
- V2 no. of cells In 1/1OOO (surface protein combination No. 109, binary code 000100000000000000): 0.6 1/1OOO
- V2 no. of cells In 1/1OOO (surface protein combination No. 110, binary code 011000011111001000): 0.8 1/1OOO
- V2 no. of cells In 1/1OOO (surface protein combination No. 111, binary code 001000000100000000): 0.8 1/1OOO
- V2 no. of cells In 1/1OOO (surface protein combination No. 112, binary code 101000010111001000): 0.2 1/1OOO
- V2 no. of cells In 1/1OOO (surface protein combination No. 113, binary code 011000011111011000): 0.2 1/1OOO
- V2 no. of cells In 1/1OOO (surface protein combination No. 114, binary code 011000001100000000): 0.2 1/1OOO
- V2 no. of cells In 1/1OOO (surface protein combination No. 115, binary code 001000000111001000): 0.3 1/1OOO
- V2 no. of cells In 1/1OOO (surface protein combination No. 116, binary code 101100010101001000): 0.6 1/1OOO
- V2 no. of cells In 1/1OOO (surface protein combination No. 117, binary code 101100010011011000): 0.6 1/1OOO
- V2 no. of cells In 1/1OOO (surface protein combination No. 118, binary code 101100110111011100): 0.7 1/1OOO
- V2 no. of cells In 1/1OOO (surface protein combination No. 119, binary code 000000010010000000): 0.1 1/1OOO
- V2 no. of cells In 1/1OOO (surface protein combination No. 120, binary code 011100011111011000): 0.2 1/1OOO
- V2 no. of cells In 1/1OOO (surface protein combination No. 121, binary code 001000011011001000): 0.2 1/1OOO
- V2 no. of cells In 1/1OOO (surface protein combination No. 122, binary code 011000001100000100): 0.3 1/1OOO
- V2 no. of cells In 1/1OOO (surface protein combination No. 123, binary code 000000001100001000): 0.3 1/1OOO
- V2 no. of cells In 1/1OOO (surface protein combination No. 124, binary code 110000001100001100): 0.5 1/1OOO
- V2 no. of cells In 1/1OOO (surface protein combination No. 125, binary code 010000011100001000): 0.5 1/1OOO
- V2 no. of cells In 1/1OOO (surface protein combination No. 126, binary code 001000110111011000): 0.5 1/1OOO
- V2 no. of cells In 1/1OOO (surface protein combination No. 127, binary code 001000011111000000): 0.5 1/1OOO
- V2 no. of cells In 1/1OOO (surface protein combination No. 128, binary code 111000001100001100): 0.7 1/1OOO
- V2 no. of cells In 1/1OOO (surface protein combination No. 129, binary code 011000011100001000): 0.7 1/1OOO
- V2 no. of cells In 1/1OOO (surface protein combination No. 130, binary code 101100010101011100): 0.2 1/1OOO
- V2 no. of cells In 1/1OOO (surface protein combination No. 131, binary code 101000010101001000): 0.3 1/1OOO
- V2 no. of cells In 1/1OOO (surface protein combination No. 134, binary code 010000011100001100): 0.5 1/1OOO
- V2 no. of cells In 1/1OOO (surface protein combination No. 135, binary code 010000011100000000): 0.5 1/1OOO
- V2 no. of cells In 1/1OOO (surface protein combination No. 136, binary code 001100010101001100): 0.5 1/1OOO
- V2 no. of cells In 1/1OOO (surface protein combination No. 137, binary code 001100000000001000): 0.5 1/1OOO
- V2 no. of cells In 1/1OOO (surface protein combination No. 138, binary code 000000001001001000): 0.6 1/1OOO
- V2 no. of cells In 1/1OOO (surface protein combination No. 139, binary code 011000001101000000): 0.1 1/1OOO
- V2 no. of cells In 1/1OOO (surface protein combination No. 140, binary code 000000000011001000): 0.1 1/1OOO
- V2 no. of cells In 1/1OOO (surface protein combination No. 141, binary code 101000010111011100): 0.2 1/1OOO
- V2 no. of cells In 1/1OOO (surface protein combination No. 142, binary code 001100000101001000): 0.2 1/1OOO
- V2 no. of cells In 1/1OOO (surface protein combination No. 143, binary code 011100011111001000): 0.3 1/1OOO
- V2 no. of cells In 1/1OOO (surface protein combination No. 144, binary code 001100010111000000): 0.3 1/1OOO
- V2 no. of cells In 1/1OOO (surface protein combination No. 145, binary code 001000000100001000): 0.3 1/1OOO
- V2 no. of cells In 1/1OOO (surface protein combination No. 146, binary code 011000011001001000): 0.5 1/1OOO
- V2 no. of cells In 1/1OOO (surface protein combination No. 147, binary code 111100011100011100): 0.1 1/1OOO
- V2 no. of cells In 1/1OOO (surface protein combination No. 148, binary code 110000001100011100): 0.1 1/1OOO
- V2 No. of cells In 1/1000, total (total over the 60 combinations occurring exclusively in actinonin-treated Karpas cells): 9.1 1/1000
